The record followed here is publication PMC8414367, “(E)-7-Ethylidene-lithocholic Acid (7-ELCA) Is a Potent Dual Farnesoid X Receptor (FXR) Antagonist and GPBAR1 Agonist Inhibiting FXR-Induced Gene Expression in Hepatocytes and Stimulating Glucagon-like Peptide-1 Secretion From Enteroendocrine Cells” (Frontiers in Pharmacology, 2021).

Each structure is given as a SMILES string. Entries after “also recorded” stand apart in the source; their conditions may differ.

Test [1] deals with GLUTag cells. The test can be described thus: MTS viability assay. The note with it: Mus musculus, 24 h, read-out: IC50, cell viability. It is filed as cell-based, murine. On the procedure:
In addition, we examined the potential effect of 7-ethylidene-lithocholic acid (7-ELCA) on viability in murine colonic GLUTag cells. IC50 for 7-ELCA in the cell line remains above 200 µM.
Figure S1. Cell viability in GluTag cells was determined using the Cell Titer 96 Aqueous One Solution Cell Proliferation Assay (Promega) after treatment with 7-ethylidene-lithocholic acid (7-ELCA) for 24 h. Vehicle (0.1% DMSO) and background (10% SDS; v/v, toxic control) controls of cell viability were set to be 100% and 0%, respectively. IC50 is greater than 200 µM.
In general terms: Tetrazolium assays rely on reduction of a dye to a coloured formazan, in cell work by metabolically active cells.

Test [2] has as its target T1, GPBAR1 Ser270Gly (Homo sapiens, UniProt Q8TDU6, S270G).
T1 construct: expressed in transfected cells; host or cells: HepG2
The test can be described thus: CRE-luc reporter assay with mutated GPBAR1 variant in HepG2 cells. It is filed as cell-based. On the technique in general: Reporter assays use an easily measured gene product as a stand-in for the process of interest.

The target of test [3] is LXRα (Homo sapiens, UniProt Q13133). Nature of the test: Nuclear receptor specificity luciferase reporter assay in HepG2 cells.
Chain of LXRα (Q13133 209-447 limits assumed): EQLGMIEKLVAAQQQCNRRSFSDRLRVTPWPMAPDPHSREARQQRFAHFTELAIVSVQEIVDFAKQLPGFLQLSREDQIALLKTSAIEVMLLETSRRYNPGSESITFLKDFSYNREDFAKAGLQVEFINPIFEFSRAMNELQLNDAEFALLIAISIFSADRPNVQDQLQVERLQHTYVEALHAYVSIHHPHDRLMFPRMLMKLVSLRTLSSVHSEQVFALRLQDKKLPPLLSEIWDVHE
Method: (§1) For transient transfection, HepG2 cells were seeded at the density of 40,000 cells/cm^2. […] The next day, cells were challenged with tested ligands in indicated concentrations for 5 h. […] All the other transient transfection reporter gene assays were performed with Lipofectamine® 3000 (ThermoFisher Scientific). Briefly, cells were transfected with 150 ng/well luciferase reporter gene constructs (p(DR3)3-luc, SHP-luc, p3A4-luc, pTAT-(GRE)2-TK-luc, p2B6-luc, pGL4.35[luc2P⁄9XGAL4UAS⁄Hygro]), FXRE-luc together with 100 ng/well of the corresponding full-length fragment nuclear receptor expression vectors (pSG5-hVDR, pSG5-hFXR, pSG5-hRXRα, pSG5-hPXR, CAR3 variant) or the ligand binding domains of human, pCMX-GAL4-hFXR, pCMX-GA4L-LXRα, pCMX-GA4L-LXRα, pCMX-GA4L-TRα, pCMX-GA4L-PPARα, pCMX-GAL4-PPARγ, pCMX-GAL4-PPARδ) and 30 ng/well of pRL-TK Renilla luciferase vector 24 h prior to the treatment. […] The firefly luciferase activity was measured using the Dual Luciferase® Reporter Assay System (Promega) and normalized to Renilla luciferase activity. Experiments in an agonistic mode were performed with OCA, CDCA or tested compounds (all compounds at 10 μM). […] EC50 and IC50 were calculated using GraphPad PRISM ver. […]
(§2) Data were normalized to Renilla luciferase activity and are expressed as fold activation relative to control (nontreated, NT) cells. […]
The target in test [4] is vitamin D receptor (VDR) (Homo sapiens, UniProt P11473). The test is described as above.
Chain of vitamin D receptor (VDR) (P11473 whole entry): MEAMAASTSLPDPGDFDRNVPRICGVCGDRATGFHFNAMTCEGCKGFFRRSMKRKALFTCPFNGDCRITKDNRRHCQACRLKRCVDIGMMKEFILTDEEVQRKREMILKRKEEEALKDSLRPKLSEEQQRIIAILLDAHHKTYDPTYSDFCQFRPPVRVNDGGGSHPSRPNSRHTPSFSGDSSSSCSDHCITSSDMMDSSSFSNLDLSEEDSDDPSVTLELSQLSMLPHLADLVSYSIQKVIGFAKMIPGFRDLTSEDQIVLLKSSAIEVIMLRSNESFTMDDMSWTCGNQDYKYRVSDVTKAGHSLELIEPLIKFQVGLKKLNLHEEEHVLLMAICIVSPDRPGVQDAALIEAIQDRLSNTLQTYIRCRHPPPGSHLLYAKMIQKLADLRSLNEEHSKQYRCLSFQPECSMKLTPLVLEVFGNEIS
Method: as §1, §2
For test [5], the system named is NCI-H716 cells. The test can be described thus: GLP-1 secretion (ELISA) in differentiated NCI-H716 cells. Format: cell-based, human. To be noted: 10 µM, 2 h, listed as 7-ELCA. On the technique in general: ELISA stands for enzyme-linked immunosorbent assay.
Test [6] has as its system NCI-H716 cells. Nature of the test: cAMP determination (cAMP-Glo) in differentiated NCI-H716 cells. Format: cell-based, human. To be noted: 10 µM, 30 min, compared to 10 µM LCA. On the procedure: Differentiated NCI-H716 cells were serum-starved, washed in PBS, and the cell culture medium was changed to Hanks' Balanced Salt solution (HBSS) supplemented with 0.2% (w/v) BSA and 500 µM 3-isobutyl-1-methylxanthine and incubated for 45 min at 37°C. Cells were stimulated with tested compounds or forskolin for 30 min, and the amount of cAMP generated was measured using the cAMP-Glo™ Assay (V1501, Promega, […], United States). The changes in cAMP levels (ΔcAMP) are presented as cAMP levels in treated samples after subtraction of the cAMP levels in the nontreated (NT) samples.
FIGURE 8 Effects of 7-alkylated derivatives of CDCA and 7-ELCA on the membrane receptor GPBAR1. […] . (B) CRE-luc activation depends on the presence of GPBAR1. (C) Effects of LCA and 7-ELCA (both at 10 µM) on intracellular generation of cAMP in differentiated NCI-H716 cells after 30 min treatment. The increase in cAMP level (ΔcAMP) is presented as the difference between cAMP concertation in the treated sample after subtraction of the cAMP in the nontreated control sample. (D) Concentration-response curves for activation of GPBAR1 by LCA and 7-ELCA. EC50 values were calculated using nonlinear fitting of concentration-response curves. […] (G) 7-ELCA (10 µM) increases GLP-1 secretion in siRNA control but not in siRNA Gpbar1 transfected GLUTag cells after 1 h treatment. […]

In test [7] the target is PPARα (Homo sapiens, UniProt Q07869). The test can be described thus: Nuclear receptor specificity luciferase reporter assay in HepG2 cells.
Chain of PPARα (Q07869 239-466 limits assumed): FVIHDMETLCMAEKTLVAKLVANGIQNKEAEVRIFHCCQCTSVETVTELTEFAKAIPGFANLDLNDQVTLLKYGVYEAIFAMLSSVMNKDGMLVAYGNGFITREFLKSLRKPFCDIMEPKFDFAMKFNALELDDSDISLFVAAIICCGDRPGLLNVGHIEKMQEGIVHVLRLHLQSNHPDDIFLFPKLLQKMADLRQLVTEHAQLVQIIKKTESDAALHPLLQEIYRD
Method: as §1, §2
Test [8] addresses PPARγ (Homo sapiens, UniProt P37231). Described as above.
Method: as §1, §2
Test [9] deals with constitutive androstane receptor (CAR) (Homo sapiens, UniProt Q14994, DEL233-236). The test is described as above.
Chain of constitutive androstane receptor (CAR) (Q14994 with tags, fused parts or gaps isoform Q14994-8 DEL233-236): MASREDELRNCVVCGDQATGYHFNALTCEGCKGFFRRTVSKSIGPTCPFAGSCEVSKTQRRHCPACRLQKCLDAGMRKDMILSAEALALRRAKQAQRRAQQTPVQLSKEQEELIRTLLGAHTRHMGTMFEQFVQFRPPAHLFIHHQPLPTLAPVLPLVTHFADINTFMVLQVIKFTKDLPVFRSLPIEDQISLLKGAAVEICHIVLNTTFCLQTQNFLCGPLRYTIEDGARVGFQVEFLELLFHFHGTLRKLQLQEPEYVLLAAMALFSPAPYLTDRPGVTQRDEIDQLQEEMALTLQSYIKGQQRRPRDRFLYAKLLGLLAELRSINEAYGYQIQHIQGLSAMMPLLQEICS
Chain of constitutive androstane receptor (CAR) (P19793 whole entry partner): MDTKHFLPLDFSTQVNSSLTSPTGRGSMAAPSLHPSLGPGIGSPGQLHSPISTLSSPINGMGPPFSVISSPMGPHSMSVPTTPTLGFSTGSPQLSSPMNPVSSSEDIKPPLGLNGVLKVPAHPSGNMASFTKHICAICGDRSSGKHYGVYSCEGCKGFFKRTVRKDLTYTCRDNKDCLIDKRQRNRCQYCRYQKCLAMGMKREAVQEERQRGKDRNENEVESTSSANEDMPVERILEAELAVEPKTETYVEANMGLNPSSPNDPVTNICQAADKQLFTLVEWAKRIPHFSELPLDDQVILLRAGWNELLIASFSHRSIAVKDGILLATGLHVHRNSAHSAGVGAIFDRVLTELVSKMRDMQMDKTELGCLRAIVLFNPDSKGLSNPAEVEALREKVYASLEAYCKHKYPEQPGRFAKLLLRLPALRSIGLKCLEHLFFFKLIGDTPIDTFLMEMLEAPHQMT
Method: as §1, §2
The test system of test [10] is GLUTag cells. The test can be described thus: GLP-1 secretion in siRNA control or Gpbar1 siRNA transfected GLUTag cells. It is filed as cell-based, murine. The note with it: 10 µM, 1 h. The method, then:
GLUTag cells were transfected with non-targeting scrambled siRNA (siRNA control) or with the combination of siRNAs specific for Gpbar1 (Silencer® Select Pre-designed siRNA, LOT# ASO2HKN6 and ASO2HKN7, Life Technologies, Carlsbad, CA, United States) twice at 24 and 72 h after seeding using Lipofectamine RNAiMAX reagent (Life Technologies, Carlsbad, CA, United States). GLUTag cells were then treated with tested molecules at the day 4 post-seeding.
FIGURE 8 Effects of 7-alkylated derivatives of CDCA and 7-ELCA on the membrane receptor GPBAR1. […] . (B) CRE-luc activation depends on the presence of GPBAR1. (C) Effects of LCA and 7-ELCA (both at 10 µM) on intracellular generation of cAMP in differentiated NCI-H716 cells after 30 min treatment. The increase in cAMP level (ΔcAMP) is presented as the difference between cAMP concertation in the treated sample after subtraction of the cAMP in the nontreated control sample. (D) Concentration-response curves for activation of GPBAR1 by LCA and 7-ELCA. EC50 values were calculated using nonlinear fitting of concentration-response curves. […] (G) 7-ELCA (10 µM) increases GLP-1 secretion in siRNA control but not in siRNA Gpbar1 transfected GLUTag cells after 1 h treatment. GLP-1 was normalized to protein concentration and GPBAR1 mRNA expression to GAPDH mRNA. Data are presented as a fold to control nontreated (NT) samples. […]

In test [11] the target is PPARβ/δ (Homo sapiens, UniProt Q03181). The test can be described thus: Nuclear receptor specificity luciferase reporter assay in HepG2 cells.
Chain of PPARβ/δ (Q03181 211-439 limits assumed): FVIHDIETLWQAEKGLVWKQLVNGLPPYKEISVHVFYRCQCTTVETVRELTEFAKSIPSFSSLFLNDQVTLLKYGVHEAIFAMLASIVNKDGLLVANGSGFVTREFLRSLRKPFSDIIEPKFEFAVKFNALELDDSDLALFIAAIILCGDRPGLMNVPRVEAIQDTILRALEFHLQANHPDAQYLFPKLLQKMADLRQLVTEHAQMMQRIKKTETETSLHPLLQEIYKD
Method: as §1, §2

Chain of PPARγ (P37231 238-503 limits assumed): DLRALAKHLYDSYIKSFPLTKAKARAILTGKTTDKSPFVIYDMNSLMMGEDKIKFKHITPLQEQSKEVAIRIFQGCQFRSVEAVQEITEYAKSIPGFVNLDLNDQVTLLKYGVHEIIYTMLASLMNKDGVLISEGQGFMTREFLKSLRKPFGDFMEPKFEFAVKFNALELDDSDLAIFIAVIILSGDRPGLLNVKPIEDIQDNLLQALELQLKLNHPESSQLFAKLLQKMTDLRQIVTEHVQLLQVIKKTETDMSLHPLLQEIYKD
T1 sequence (Q8TDU6 whole entry S270G): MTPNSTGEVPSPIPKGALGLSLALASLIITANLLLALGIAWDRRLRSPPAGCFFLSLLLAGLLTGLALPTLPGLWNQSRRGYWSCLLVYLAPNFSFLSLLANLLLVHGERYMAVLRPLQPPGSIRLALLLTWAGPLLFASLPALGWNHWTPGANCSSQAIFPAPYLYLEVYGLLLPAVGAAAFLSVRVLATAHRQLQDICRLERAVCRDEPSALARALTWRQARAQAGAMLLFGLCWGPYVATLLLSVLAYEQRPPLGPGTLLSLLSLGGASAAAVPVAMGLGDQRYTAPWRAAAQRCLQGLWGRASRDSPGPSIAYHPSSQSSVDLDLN

A word on the IC50: it is the concentration at which inhibition is half-maximal. As for `C/C=C1\C[C@@H]2C[C@H](O)CC[C@]2(C)[C@H]2CC[C@]3(C)[C@@H]([C@H](C)CCC(=O)O)CC[C@H]3[C@H]12` [2a, (E)-3α-Hydroxy-7-ethylidene-5β-cholan-24-oic acid], the IC50 in test [1] was more than 200 µM. Moreover, the “CRE-luc activation via GPBAR1 Ser270Gly” value in test [2] is on record as “partially preserved”. In test [3] (10 µM, with GW3965 1 µM), the “antagonism of LXRα activation by model ligand” value is on record as “did not antagonize”. Also, the “activation of LXRα” value in [3] (agonistic assay, 24 h) was “did not activate”. In addition, in [4] (10 µM, with 1α,25(OH)2vitaminD3 10 nM), the “antagonism of VDR activation by model ligand” value is given as “did not antagonize”. Moreover, the “activation of VDR” value in test [4] (agonistic assay, 24 h) is recorded as “did not activate”. For the same compound, the GLP-1 secretion result in test [5] is recorded as “significant increase of GLP-1 secretion; also recorded: significantly stronger compared to LCA”; in [10] (Gpbar1 siRNA transfected GLUTag cells) it was “did not lead to the significantly increased GLP-1 production”; in test [10] (siRNA control GLUTag cells) it was “significant increase of the GLP-1 secretion”. Further, the “intracellular generation of cAMP” value in [6] is “more significant production of cAMP”. Further, in [7] (10 µM, with fenofibrate 1 µM), the “antagonism of PPARα activation by model ligand” value is recorded as “did not antagonize”. Besides, the “activation of PPARα” value in [7] (agonistic assay, 24 h) is recorded as “did not activate”. Further, in test [8] (10 µM, with rosiglitazone 1 µM), the “antagonism of PPARγ activation by model ligand” value is “did not antagonize”. Moreover, the “activation of PPARγ” value in [8] (agonistic assay, 24 h) is on record as “did not activate”. The “antagonism of CAR activation by model ligand” value in [9] (10 µM, with CITCO 1 µM) was “did not antagonize”. Moreover, in [9] (agonistic assay, 24 h), the “activation of CAR” value was “did not activate”. The “antagonism of PPARβ/δ activation by model ligand” value in test [11] (10 µM, with GW501516 1 µM) was “did not antagonize”. Also, the “activation of PPARβ/δ” value in test [11] (agonistic assay, 24 h) is reported as “did not activate”.
